Columns and labels:
[1] = Photo- and thermal stability in the solvent, HPLC
[2] = Stability in high humidity environment (moisture absorption weight gain); format: physicochemical; settings: 25° C., RH90%±5%
Procedure: A moisture absorption gain ratio was calculated.

[3] = pH 7.5
[4] = system: SV40 corneal epithelial cells; assay: Hypertonic inflammatory cell model, RT-PCR of inflammation-related cytokine mRNA; format: cell-based, human; settings: hypertonic model 500 mOsm, four hours of administration, vs. HS group, Ps<0.01
Procedure: SV40 cell culture: SV40 cells were cultured in a DMEM/F12 medium containing 10% fetal bovine serum, and added with insulin and a human epidermal growth factor at the same time, so that a final concentration of insulin in the medium was 5 μg/mL and a final concentration of the human epidermal growth factor was 10 ng/mL. The medium was routinely subcultured in a cell culture incubator with a temperature of 37° C., CO2 content of 5% and a humidity of 90%. The cells were grown to a fused state of 70%-90% for an experiment.
Preparation of solution: (1) preparation of hypertonic liquid (500 mOsm): 90 mmol/L NaCl solution was added to a serum-free medium. […]
(§1) Real-time PCR (RT-PCR): mRNA expressions of different groups of IL-6, IL-1β, IL-17A, IL-18, TNF-α, and NLRP3 were detected using RT-PCR. […] RNA was extracted from the cells according to an instruction of an RNA extraction kit, and a total amount of RNAs required to synthesize a cDNA template was calculated based on a measured concentration. cDNA was synthesized by an M-MLV reverse transcription kit, and the cDNA obtained by reverse transcription was stored at −20° C. for subsequent PCR amplification. […]
(§2) A SYBR Green fluorescent dye method was used for RT-PCR detection. A relatively quantified mRNA expression quantity of a target gene was calculated. […]

[5] = system: primary human corneal epithelial cells; assay: as above; format: cell-based; settings: Ps<0.01
Procedure: Primary human cell culture: the remaining limbus of the donor cornea used in a surgery was treated with an ophthalmic instrument into a tissue block carrying corneal stem cells, the tissue block was pasted at the bottom of a cell culture dish, cultured in an SHEM medium, and placed in a cell culture incubator with a temperature of 37° C., CO2 content of 5% and humidity of 90%; primary human corneal epithelial cells crawling out of the limbal stem cells can be seen after 3-5 days; and the cells were grown to a fused state of 70%-90% for an experiment.
Preparation of solution: (1) preparation of hypertonic liquid (500 mOsm): 90 mmol/L NaCl solution was added to a serum-free medium. (2) Preparation of a tested drug solution: 10 mg of the above prepared product was dissolved in 1 mL of 37° C. DMSO solution, prepared into […] mother liquor, and stored in a −20° C. refrigerator for later use; and the mother liquor was diluted with a serum-free medium to prepare drug solutions having final concentrations of 1 μmol/L and 10 μmol/L for an experiment. […]
as §1, §2
Real-time PCR (RT-PCR): mRNA expressions of different groups of IL-6, IL-1β, IL-17A, IL-18, TNF-α, and NLRP3 were detected using RT-PCR. […]

COc1ccc2cc3[n+](cc2c1OC)CCc1cc2c(cc1-3)OCO2 [Berberine base]
C ([1]; 0:00): 24.45 µg/mL
Purity ([1]; 0:00): 97.35%
C ([1]; 40° C. (in dark place), 8:00): 22.62 µg/mL
Purity ([1]; 40° C. (in dark place), 8:00): 97.17%
C ([1]; 40° C. (in dark place), Day 5): 22.41 µg/mL
Purity ([1]; 40° C. (in dark place), Day 5): 97.02%
C ([1]; 40° C. (in dark place), Day 10): 10.35 µg/mL
Purity ([1]; 40° C. (in dark place), Day 10): 96.86%
C ([1]; 60° C. (in dark place), 8:00): 22.45 µg/mL
Purity ([1]; 60° C. (in dark place), 8:00): 97.17%
C ([1]; 60° C. (in dark place), Day 5): 21.31 µg/mL
Purity ([1]; 60° C. (in dark place), Day 5): 96.96%
C ([1]; 60° C. (in dark place), Day 10): 9.68 µg/mL
Purity ([1]; 60° C. (in dark place), Day 10): 95.99%
C ([1]; Illumination, 8:00): 21.84 µg/mL
Purity ([1]; Illumination, 8:00): 97.62%
C ([1]; Illumination, Day 5): 14.70 µg/mL
Purity ([1]; Illumination, Day 5): 88.52%
C ([1]; Illumination, Day 10): 7.02 µg/mL
Purity ([1]; Illumination, Day 10): 74.89%
Weight gain percentage of Day 5 (%) [2]: 4.2%
Weight gain percentage of Day 10 (%) [2]: 6.7%
Concentration in solvent [3]: 24450 ng/mL

CC(C)(O)c1ccccc1CC[C@@H](SCC1(CC(=O)[O-])CC1)c1cccc(/C=C/c2ccc3ccc(Cl)cc3n2)c1.COc1ccc2cc3[n+](cc2c1OC)CCc1cc2c(cc1-3)OCO2 [Montelukast berberine double salt, (R,E)-2-(1-(((1-(3-(2-(7-chloroquinoline-2-yl)vinyl)phenyl)-3-(2-(2-hydroxypropyl-2-yl)phenyl)propyl)thio)methyl)cyclopropyl)acetic acid and 9,10-dimethoxy-5,6-dihydro-[1,3]dioxocyclo [4,5-g]isoquino[3,2-a]isoquinolin-7-onium conjugate]
Weight gain percentage of Day 5 (%) [2]: 3.3%
Weight gain percentage of Day 10 (%) [2]: 4.9%
inflammation-related cytokines (mRNA expression) ([4]; 1 μmol/L): significantly reduce
inflammation-related cytokines (mRNA expression) ([4]; 10 μmol/L): significantly reduce
inflammation-related cytokines (mRNA expression) ([5]; 0.5 μmol/L, compared with single drug of berberine and montelukast of the same concentration): significantly reduce
inflammation-related cytokines (mRNA expression) ([5]; 1 μmol/L, hypertonic model 500 mOsm, four hours of administration, vs. HS group): significantly reduce
inflammation-related cytokines (mRNA expression) ([5]; 10 μmol/L, hypertonic model 500 mOsm, four hours of administration, vs. HS group): significantly reduce

CC(C)(O)c1ccccc1CC[C@@H](SCC1(CC(=O)O)CC1)c1cccc(/C=C/c2ccc3ccc(Cl)cc3n2)c1 [Montelukast]
Weight gain percentage of Day 5 (%) [2]: 4.5%
Weight gain percentage of Day 10 (%) [2]: 5.3%
